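Tested at 5 concentrations; 48 h exposure; 96-well plates; endpoints linearly interpolated, else capped at highest concentration. GI50 marks 50% less growth.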 Active and inactive are the calls of the source. No stated cut-off is given here; in the data, active = GI50 up to about 1.1 µM and inactive = higher.
Experiments:
Assay in all cases: DTP human tumour cell line panel, 48 h
786-0 = test system: 786-0
A549 = test system: A549
CAKI-1 = test system: CAKI-1
DU-145 = test system: DU-145
HCC 2998 = test system: HCC 2998
HCT-116 = test system: HCT-116
M14 = test system: M14
MDA-MB-435 = test system: MDA-MB-435
MOLT-4 = test system: MOLT-4
NCI-H226 = test system: NCI-H226
OVCAR-8 = test system: OVCAR-8
RPMI-8226 = test system: RPMI-8226
SK-MEL-28 = test system: SK-MEL-28
SK-MEL-2 = test system: SK-MEL-2
SK-MEL-5 = test system: SK-MEL-5
SR = test system: SR
UACC-62 = test system: UACC-62
EKVX = test system: EKVX
HL-60 = test system: HL-60

Measured: GI50

O=C(NNC(=S)Nc1ccc(Cl)cc1)c1cc(-c2ccccc2)nc2ccccc12
inactive: 786-0 4.71 µM | A549 7.11 µM | CAKI-1 4.71 µM | DU-145 4.23 µM | HCC 2998 3.53 µM | HCT-116 3.06 µM | M14 4.97 µM | MDA-MB-435 2.82 µM | MOLT-4 4.24 µM | NCI-H226 11.5 µM | OVCAR-8 8.11 µM | RPMI-8226 4.08 µM | SK-MEL-28 3.31 µM | SK-MEL-2 2.56 µM | SK-MEL-5 3.73 µM | SR 2.21 µM | UACC-62 2.9 µM

O=C1NC(Cc2c[nH]c3ccccc23)C(=O)N2C(c3ccccc3)c3[nH]c4ccccc4c3C[C@@H]12 (stereo not given in full)
inactive: 786-0 16.2 µM | A549 25.8 µM | CAKI-1 25.5 µM | DU-145 32.3 µM | EKVX 22.5 µM | HCT-116 15.4 µM | HL-60 20.5 µM | M14 21.6 µM | MDA-MB-435 18.8 µM | MOLT-4 12.6 µM | NCI-H226 35.6 µM | OVCAR-8 31.3 µM | RPMI-8226 20 µM | SK-MEL-28 29.7 µM | SK-MEL-2 23.8 µM | SK-MEL-5 17.5 µM | SR 12.8 µM | UACC-62 17.2 µM

CN(C)c1nc(NN)c2c(-c3ccccc3)c(-c3ccccc3)oc2n1
inactive: 786-0 > 100 µM | A549 > 100 µM | CAKI-1 > 100 µM | DU-145 > 100 µM | EKVX > 100 µM | HCC 2998 > 100 µM | HCT-116 > 100 µM | M14 > 100 µM | MDA-MB-435 > 100 µM | MOLT-4 > 100 µM | NCI-H226 > 100 µM | OVCAR-8 > 100 µM | RPMI-8226 > 100 µM | SK-MEL-28 > 100 µM | SR 72.3 µM | UACC-62 44.8 µM

c1ccc2cc3c(cc2c1)nc1ccccn13
inactive: 786-0 > 100 µM | A549 > 100 µM | DU-145 > 100 µM | EKVX > 100 µM | HCC 2998 > 100 µM | HCT-116 96.2 µM | HL-60 > 100 µM | M14 > 100 µM | MDA-MB-435 > 100 µM | MOLT-4 > 100 µM | NCI-H226 > 100 µM | OVCAR-8 > 100 µM | RPMI-8226 > 100 µM | SK-MEL-28 > 100 µM | SK-MEL-5 > 100 µM | SR > 100 µM | UACC-62 > 100 µM

CCOC(=O)/C=C/CCO[Si](C)(C)C(C)(C)C
inactive: 786-0 > 100 µM | A549 > 100 µM | CAKI-1 > 100 µM | DU-145 > 100 µM | EKVX > 100 µM | HCC 2998 > 100 µM | HCT-116 > 100 µM | MDA-MB-435 > 100 µM | MOLT-4 > 100 µM | NCI-H226 > 100 µM | OVCAR-8 > 100 µM | RPMI-8226 > 100 µM | SK-MEL-28 > 100 µM | SK-MEL-2 > 100 µM | SK-MEL-5 > 100 µM | SR > 100 µM | UACC-62 > 100 µM

CCN(CC(O)COc1ccc2c(c1)[n+]([O-])nc(N)[n+]2[O-])C(C)=O (stereo not given)
inactive: 786-0 > 100 µM | A549 > 100 µM | CAKI-1 > 100 µM | DU-145 > 100 µM | EKVX > 100 µM | HCT-116 97.9 µM | HL-60 > 100 µM | M14 > 100 µM | MDA-MB-435 > 100 µM | MOLT-4 39 µM | NCI-H226 > 100 µM | OVCAR-8 59.3 µM | RPMI-8226 > 100 µM | SK-MEL-28 > 100 µM | SK-MEL-2 > 100 µM | SK-MEL-5 79.1 µM | SR > 100 µM | UACC-62 49.7 µM

COC1O[C@H]2[C@H]3[C@@H]1[C@@H](OS(=O)(=O)c1ccc(C)cc1)C(=O)N3C[C@H]2O (stereo not given in full)
inactive: 786-0 > 100 µM | A549 > 100 µM | CAKI-1 > 100 µM | DU-145 > 100 µM | EKVX > 100 µM | HCC 2998 > 100 µM | HCT-116 > 100 µM | M14 > 100 µM | MDA-MB-435 > 100 µM | MOLT-4 48.5 µM | NCI-H226 > 100 µM | OVCAR-8 > 100 µM | RPMI-8226 61.2 µM | SK-MEL-28 > 100 µM | SK-MEL-2 > 100 µM | SK-MEL-5 > 100 µM | SR > 100 µM | UACC-62 > 100 µM

O=C(O)CSCc1cccc2ccccc12
inactive: 786-0 > 100 µM | A549 > 100 µM | CAKI-1 > 100 µM | DU-145 > 100 µM | EKVX 19.4 µM | HCT-116 > 100 µM | HL-60 > 100 µM | M14 > 100 µM | MDA-MB-435 > 100 µM | MOLT-4 > 100 µM | NCI-H226 > 100 µM | OVCAR-8 > 100 µM | RPMI-8226 > 100 µM | SK-MEL-28 > 100 µM | SK-MEL-2 > 100 µM | SK-MEL-5 > 100 µM | SR > 100 µM | UACC-62 > 100 µM

CC12CCCCC1=[N+]([O-])C(C)(C)N2O (stereo not given)
inactive: 786-0 > 100 µM | A549 > 100 µM | CAKI-1 > 100 µM | DU-145 > 100 µM | EKVX > 100 µM | HCC 2998 > 100 µM | HCT-116 > 100 µM | M14 > 100 µM | MDA-MB-435 > 100 µM | NCI-H226 > 100 µM | OVCAR-8 > 100 µM | RPMI-8226 > 100 µM | SK-MEL-28 > 100 µM | SK-MEL-2 > 100 µM | SK-MEL-5 > 100 µM | SR > 100 µM | UACC-62 > 100 µM

C[C@@H](NC(=O)[C@@H]1C[C@]1(C)CO)c1cccc2ccccc12
inactive: 786-0 > 100 µM | A549 > 100 µM | CAKI-1 > 100 µM | DU-145 > 100 µM | EKVX > 100 µM | HCC 2998 > 100 µM | HCT-116 > 100 µM | M14 > 100 µM | MDA-MB-435 > 100 µM | MOLT-4 > 100 µM | NCI-H226 > 100 µM | OVCAR-8 > 100 µM | RPMI-8226 > 100 µM | SK-MEL-28 > 100 µM | SK-MEL-2 > 100 µM | SK-MEL-5 > 100 µM | SR > 100 µM | UACC-62 > 100 µM

CCc1nnc(CC)n1N1C(=O)CCC1=O
inactive: 786-0 > 100 µM | A549 > 100 µM | DU-145 > 100 µM | EKVX > 100 µM | HCC 2998 > 100 µM | HCT-116 > 100 µM | M14 > 100 µM | MDA-MB-435 > 100 µM | MOLT-4 > 100 µM | OVCAR-8 > 100 µM | RPMI-8226 > 100 µM | SK-MEL-28 > 100 µM | SK-MEL-2 > 100 µM | SK-MEL-5 > 100 µM | SR > 100 µM | UACC-62 > 100 µM
